These results are taken from publication PMC9378673 (Nature Communications, 2022).

One test has as its target T1, IDH1 S280F (Homo sapiens, UniProt O75874, S280F).
T1 construct: made in house; host or cells: E. coli BL21(DE3)plysS
Description: Steady-state kinetics, spectrophotometric NADPH absorption assay. The format is biochemical. As for the experimental part: (§1) This assay was used to study steady-state kinetics and inhibition of reactions catalysed by IDH1 variants. The assay buffer was 100 mM Tris, 10 mM MgCl2, 0.2 mM dithiothreitol (DTT), 0.005%(v/v) Tween 20, and 0.1 mg mL^−1 bovine serum albumin (BSA) (pH 8.0). For inhibition assays, IDH1 variants were incubated with an inhibitor for 12 min before the reaction was initiated by substrate addition. The standard error was derived from curve fitting using GraphPad Prism v9. See figure legends for details on specific kinetic assays (Figs. 1–3; Supplementary Fig. 5; Supplementary Table 1). […]
(§2) spectrophotometric NADPH absorption assay. Conditions: 100 mM Tris, 10 mM MgCl2, 0.2 mM DTT, 0.005 %(v/v) Tween 20, and 0.1 mg/mL bovine serum albumin (BSA), pH 8.0. […] (a) Michaelis Menten […]
(§3) parameters for the oxidative decarboxylation of isocitrate. Errors: standard error of the mean (n = 3). (b) Michaelis Menten parameters for the reduction of 2-OG to 2-HG. Errors: standard error of the mean (n = 3).

The next test has as its target T2, IDH1 wt (Homo sapiens, UniProt O75874).
T2 construct: made in house; host or cells: E. coli BL21(DE3)plysS
The test is described as above. The class given is biochemical. As for the experimental part:
as §1, §2, §3

Test [1] relates to LN18 cells containing an empty vector (control, no IDH1). Description: 2-HG levels in cells by anion-exchange chromatography-MS. The format is cell-based, human. Also noted: unit not given here.
[2] abbreviates: oxidative decarboxylation of isocitrate; 1 nM enzyme; read-out: KM IDH1 S280F.
The mark [3] stands for this setting: oxidative decarboxylation of isocitrate; 1 nM enzyme; read-out: KM IDH1 wt.
Setting [4] is: 5 µM inhibitor, 24 h, replicates.
Where [5] appears, read: oxidative decarboxylation of isocitrate; 1 nM enzyme; varied substrate = label.
[6] abbreviates: reduction of 2-OG to 2-HG; […] enzyme; read-out: KM IDH1 S280F.

The structures appear in SMILES notation. Where “and” joins values, the source holds several entries; their conditions need not be identical. Equal values may be shown once. Where a name gives a salt, the structure may show the parent alone. Read-outs that look alike come from different tables or passages of the source.

T1 sequence (O75874 whole entry S280F): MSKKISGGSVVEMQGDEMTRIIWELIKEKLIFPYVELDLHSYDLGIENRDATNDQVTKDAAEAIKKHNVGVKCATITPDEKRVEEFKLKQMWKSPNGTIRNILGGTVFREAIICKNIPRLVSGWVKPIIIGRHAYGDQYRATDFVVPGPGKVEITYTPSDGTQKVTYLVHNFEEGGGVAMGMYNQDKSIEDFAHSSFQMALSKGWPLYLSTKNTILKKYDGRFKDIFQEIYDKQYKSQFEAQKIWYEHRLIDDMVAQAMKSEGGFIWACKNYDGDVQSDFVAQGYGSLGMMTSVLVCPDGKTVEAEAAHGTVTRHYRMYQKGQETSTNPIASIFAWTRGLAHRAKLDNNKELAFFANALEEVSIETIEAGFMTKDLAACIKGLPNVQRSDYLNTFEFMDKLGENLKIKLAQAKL
T2 sequence (O75874 whole entry): as the sequence (O75874 whole entry S280F) above, with F280S counted along it

Take `O=C(O)CC(C(=O)O)C(O)C(=O)O` (racemic) [DL-Isocitrate, DL-isocitric acid trisodium salt]: the Michaelis constant (Km) turned out to be 12 ± 1 µM on IDH1 S280F (setting [2]) and 31 ± 3 µM on IDH1 wt (setting [3]).
Take `O=C(O)CCC(=O)C(=O)O` [2-OG, 2-oxoglutarate]: the values for the Km on IDH1 S280F (read-out: KM IDH1 S280F; reduction of 2-OG to 2-HG; […] enzyme) and at IDH1 wt (read-out: KM IDH1 wt; reduction of 2-OG to 2-HG; […] enzyme) were 123 ± 4 µM and 792 ± 103 µM, respectively.
As to `Cc1cn(C(=O)c2c(-c3c(Cl)cc(Cl)cc3Cl)noc2C(C)(C)F)c2cccc(/C=C/C(=O)O)c12` [DS-1001B], the “2-HG levels, control (empty vector) LN18 cells” value (from here on “2-HG levels, control”) in test [1] (setting [4]) is 51141.4 and 46980.7 and 53466.4 and 38288.1.
Same read-out and setting: with `C[C@H](Nc1ccc(C#N)n(C)c1=O)c1cc2cc(Cl)ccc2[nH]c1=O` [FT-2102] the figure was 52804.5 and 64927 and 75933.5 and 34018.1; with `COc1c(C)cc(NC(=O)c2nn(Cc3ccc(F)cc3)c3c2CN(C(=O)c2ccc[nH]2)C[C@]3(C)C(N)=O)cc1C` [GSK864], 43585.6 and 50898.8 and 60357.4 and 48169.7.
`CC(Nc1nccc(N2C(=O)OCC2C(C)C)n1)c1ccc(CN2CCC(F)(F)CC2)cc1` (stereo not drawn) [IDH224]: in test [1], the “2-HG levels, control” value was 89318.1 and 81458.8 and 60558.2 and 69273.4.
`[Cl-].[Cl-].[Mg+2]` [MgCl2]: the Michaelis constant (Km) on IDH1 S280F (setting [2]) was determined as 24 ± 3 µM; at IDH1 S280F (setting [6]) it was 15 ± 4 µM; on IDH1 wt (setting [3]) it was 18 ± 2 µM. Besides, the “kcat IDH1 S280F” value at IDH1 S280F (setting [5]) came out at 33 ± 1 s⁻¹. Further, the “Decrease of KM for IDH1 S280F compared to IDH1 wt” value on IDH1 S280F (reduction of 2-OG to 2-HG) was 100 fold. Besides, on IDH1 wt (setting [5]), the “kcat IDH1 wt” value is 37 ± 1 s⁻¹.
With `NC(=O)c1ccc[n+]([C@@H]2O[C@H](COP(=O)([O-])OP(=O)(O)OC[C@H]3O[C@@H](n4cnc5c(N)ncnc54)[C@H](OP(=O)(O)O)[C@@H]3O)[C@@H](O)[C@H]2O)c1` [NADP+], the Km came out at 7.4 ± 0.7 µM at IDH1 S280F (setting [2]) and 10.1 ± 0.7 µM on IDH1 wt (setting [3]). Moreover, on IDH1 S280F (setting [5]), the “kcat IDH1 S280F” value amounted to 31.3 ± 0.6 s⁻¹. Further, the “kcat IDH1 wt” value on IDH1 wt (setting [5]) turned out to be 43.2 ± 0.7 s⁻¹.
Regarding `NC(=O)C1=CN([C@@H]2O[C@H](COP(=O)(O)OP(=O)(O)OC[C@H]3O[C@@H](n4cnc5c(N)ncnc54)[C@H](OP(=O)(O)O)[C@@H]3O)[C@@H](O)[C@H]2O)C=CC1` [NADPH], the results for the Km on IDH1 S280F (setting [6]) and on IDH1 wt (reduction of 2-OG to 2-HG; […] enzyme; read-out: KM IDH1 wt) were 3 ± 0.3 µM and 7 ± 2 µM, respectively.
Consider `N#Cc1ccnc(N2C(=O)CC[C@H]2C(=O)N(c2cncc(F)c2)[C@H](C(=O)NC2CC(F)(F)C2)c2ccccc2Cl)c1` [ivosidenib], for which the “2-HG levels, control” value in test [1] (5 µM inhibitor, 24 h, replicates, listed as AG120) is 57883 and 75917.7 and 85802.8 and 47477.2.
